What all share (type): cell-based, human
For data set [1], the system named is SW620-src colorectal cancer cells. In words: Wound healing assay (scratch, cell migration). As to conditions: Src transformed SW620 cells, 24h after scratch; Fig. 12. The method, then: SW620-src colorectal cancer cells were a kind gift of Dr. Serge Roche group. These cells have been stably transfected with human Src as described in Aponte, E., et al. (2021). "Regulation of Src tumor activity by its N-terminal intrinsically disordered region." Oncogene, 41: 960-970.. SW620-src colorectal cancer cells were grown in DMEM supplemented with 10% FBS (Gibco 10500-064), 1% GlutaMAX (Gibco 35050038) 1% P/S (Corning 30-002-CI). Cell lines were grown at 37°C with an atmosphere of 95% air, 5% CO2. All the reagents used during cell culture procedures were heated to 37°C in a water bath before its use. […]
Cells were plated into 24-well plate at density of 500,000 cells/well and were cultured until they reach a 100% confluence. […] Each well was photographed in the same site to quantify cell migration after 24 hours. […] The obtained images were analyzed by Imaged software (Schindelin, J., et al. (2012). "Fiji: an open-source platform for biological-image analysis." Nature Methods 9(7): 676-682) using the MRI wound healing tool plugin (Suarez-Arnedo, A., et al. (2020). "An image J plugin for the high throughput image analysis of in vitro scratch wound healing assays." PLOS ONE 15(7): e0232565) . […]

Data set [2] shares this test system. In words: Soft agar colony formation assay. As to conditions: Src transformed SW620 colorectal cancer cells, 5 µM of Drugs, 3 weeks, colonies with >50 cells counted; Fig. 11. As for the experimental part: (§1) SW620-src colorectal cancer cells were a kind gift of Dr. Serge Roche group. These cells have been stably transfected with human Src as described in Aponte, E., et al. (2021). "Regulation of Src tumor activity by its N-terminal intrinsically disordered region." Oncogene, 41: 960-970.. SW620-src colorectal cancer cells were grown in DMEM supplemented with 10% FBS (Gibco 10500-064), 1% GlutaMAX (Gibco 35050038) 1% P/S (Corning 30-002-CI). Cell lines were grown at 37°C with an atmosphere of 95% air, 5% CO2. All the reagents used during cell culture procedures were heated to 37°C in a water bath before its use. Before each assay, the absence of mycoplasma was tested according to a previously described protocol (Molla Kazemiha, V., et al. (2009). "PCR-based detection and eradication of mycoplasmal infections from various mammalian cell lines: a local experience." Cytotechnology 61(3): 117-124).
Cells were plated at density of 10,000 per well in 24-well plates in 0.3% soft agar on top of a base layer of 0.7% agar. The cells were treated with 5 µM of Drugs, and the plates were incubated for 3 weeks, replacing the media every week. […] These experiments were repeated twice with 4 replicates per group, and only colonies with >50 cells were counted.

The test system is the same in data set [3]. In words: Cell viability assay (MTT). The settings on record: 72h, varying concentrations, much higher than those used in biological activity assays, Fig. 13. As for the experimental part:
as §1
Cell viability was measured by MTT assay as described before (Kamiloglu, S., et al. (2020). "Guidelines for cell viability assays." Food Frontiers 1(3): 332-349).. […]
SW620-src cells were seeded into 96-well plates containing 100 µL of the growth medium at a density of 10000 cells/well for and cultured for one day. […] Afterwards, the plates were read under 570/690 nm wavelengths by plate reader (Synergy HTX, Biotek).

Entries after “also recorded” stand apart in the source; their conditions may differ.

Regarding Moc-Leu-Lys-1-Lys-Leu-Moc [LK-Me], in data set [1], the “migration of cancer cells (scratch wound healing)” value was “does not show significant biological activity; also recorded: no effect”. Further, the colony formation entry in data set [2] is “does not show significant biological activity; also recorded: no effect”.

Turning to `COC(=O)N[C@@H](CO)C(=O)N[C@@H](CC(C)C)C(=O)N[C@@H](CCC(=O)O)C(=O)N1CCC[C@H]1c1cn(-c2ccc(-c3ccc(-n4cc([C@@H]5CCCN5C(=O)[C@H](CCC(=O)O)NC(=O)[C@H](CC(C)C)NC(=O)[C@H](CO)NC(=O)OC)nn4)cc3)cc2)nn1` [SLE-Me, Moc-Ser-Leu-Glu-1-Glu-Leu-Ser-Moc], the cell viability result in data set [3] was “do not significantly affect cell viability”.

For `COC(=O)NC(C(=O)N1CCC[C@H]1c1cn(-c2ccc(-c3ccc(-n4cc([C@@H]5CCCN5C(=O)C(NC(=O)OC)C(C)C)nn4)cc3)cc2)nn1)C(C)C` (stereo partly drawn) [V-Me, Moc-Val-1-Val-Moc], in data set [1], the “migration of cancer cells (scratch wound healing)” value was “significantly reduced; also recorded: significantly impair”. For the same compound, in data set [2], the colony formation result is “significantly reduced; also recorded: significantly decrease”. In addition, the cell viability entry in data set [3] was “do not significantly affect cell viability”.
